Assay results published in ChEMBL document CHEMBL1132068, “A new class of anti-HIV agents: synthesis and activity of conjugates of HIV protease inhibitors with a reverse transcriptase inhibitor” (Bioorg Med Chem Lett, 1999).

Key:
MT4 = assay: Inhibitory activity against HIV-1 IIIB in MT-4 infected cells; assay type: functional, cell-based; details: Homo sapiens
[1] = molecular target: Human immunodeficiency virus type 1 protease (Human immunodeficiency virus 1) (UniProt Q72874); assay: Inhibitory activity against HIV protease at a concentration of 5 uM
[2] = molecular target: Human immunodeficiency virus type 1 protease (Human immunodeficiency virus 1) (UniProt Q72874); assay: Inhibitory activity against HIV protease at a concentration of 50 uM
CEM-SS [3] = assay: Inhibitory activity against HIV-1 IIIB in CEM-SS infected cells (Experiment 2); assay type: functional, cell-based; details: Homo sapiens
CEM-SS [4] = assay: Inhibitory activity against HIV-1 IIIB in CEM-SS infected cells relative to AZT; assay type: functional, Homo sapiens
CEM-SS [5] = assay: Inhibitory activity against HIV-1 IIIB in CEM-SS infected cells; assay type: functional, cell-based; details: Homo sapiens
CEM-SS [6] = assay: Inhibitory activity against HIV-1 IIIB in CEM-SS infected cells; In active; assay type: functional, cell-based, Homo sapiens

Compound | inhibition [1] [%] | inhibition [2] [%] | EC50 (CEM-SS [3]) [µM] | EC50 (CEM-SS [5]) [µM] | EC50 (CEM-SS [6]) | EC50 (MT4) [µM] | Relative Potency (CEM-SS [4])
CC(C)(C)NC(=O)[C@H]1N(C(=O)[C@@H](O)[C@H](Cc2ccccc2)NC(=O)CC(C)(C)C(=O)O)CSC1(C)C | 99 | 76 | – | – | – | 52 | –
Cc1cn([C@H]2C[C@H](N=[N+]=[N-])[C@@H](CO)O2)c(=O)[nH]c1=O [ZIDOVUDINE] | – | – | 0.011 | – | – | – | 1
Cc1ccccc1CNC(=O)[C@H]1N(C(=O)[C@@H](O)[C@H](Cc2ccccc2)NC(=O)C(C)C(C)C(=O)O)CSC1(C)C (stereo partly drawn) | 100 | 76 | – | – | – | – | –
Cc1ccccc1CNC(=O)[C@@H]1CSCN1C(=O)[C@@H](O)[C@H](Cc1ccccc1)NC(=O)CC(C)(C)C(=O)O | 87 | – | – | – | – | – | –
Cc1ccccc1CNC(=O)[C@H]1N(C(=O)[C@@H](O)[C@H](Cc2ccccc2)NC(=O)CC(C)(C)C(=O)O)CSC1(C)C | 100 | 78 | – | – | Not Active | – | –
CSC[C@H](NC(=O)COc1cccc2cnccc12)C(=O)N[C@@H](Cc1ccccc1)[C@H](O)C(=O)N1CSC[C@H]1C(=O)NC(C)(C)C | 100 | – | – | 0.04 | – | 0.00057 | –
CC(C(=O)O)C(C)C(=O)N[C@@H](Cc1ccccc1)[C@H](O)C(=O)N1CSC(C)(C)[C@H]1C(=O)NC(C)(C)C (stereo partly drawn) | 99 | 78 | – | – | – | 225 | –
Cc1ccccc1CNC(=O)[C@@H]1CSCN1C(=O)[C@@H](O)[C@H](Cc1ccccc1)NC(=O)C(C)C(C)C(=O)O (stereo partly drawn) | 88 | – | – | – | – | – | –

Now from value to compound, other results behind:

inhibition [1] [%] | inhibition [2] [%] | EC50 (CEM-SS [3]) [µM] | EC50 (CEM-SS [5]) [µM] | EC50 (CEM-SS [6]) | Compound | EC50 (MT4) [µM] | Relative Potency (CEM-SS [4])
96 | 39 | – | 0.0073 | – | Cc1ccccc1CNC(=O)[C@H]1N(C(=O)[C@@H](O)[C@H](Cc2ccccc2)NC(=O)C(C)C(C)C(=O)OCC2OC(n3cc(C)c(=O)[nH]c3=O)CC2N=[N+]=[N-])CSC1(C)C (stereo partly drawn) | – | 1.5
69 | – | – | 0.09 | – | Cc1cn(C2CC(N=[N+]=[N-])C(COC(=O)C(C)C(C)C(=O)N[C@@H](Cc3ccccc3)[C@H](O)C(=O)N3CSC(C)(C)[C@H]3C(=O)NC(C)(C)C)O2)c(=O)[nH]c1=O (stereo partly drawn) | – | 1.4
41 | – | – | 0.019 | – | Cc1cn(C2CC(N=[N+]=[N-])C(COC(=O)C(C)(C)CC(=O)N[C@@H](Cc3ccccc3)[C@H](O)C(=O)N3CSC(C)(C)[C@H]3C(=O)NC(C)(C)C)O2)c(=O)[nH]c1=O (stereo partly drawn) | – | 6.6
9 | – | – | 0.027 | – | Cc1cn(C2CC(N=[N+]=[N-])C(COC(=O)C(C)(C)CC(=O)N[C@@H](Cc3ccccc3)[C@H](O)C(=O)N3CSC[C@H]3C(=O)NC(C)(C)C)O2)c(=O)[nH]c1=O (stereo partly drawn) | – | 4.7
97 | 32 | – | – | – | CC(C(=O)O)C(C)C(=O)N[C@@H](Cc1ccccc1)[C@H](O)C(=O)N1CSC[C@H]1C(=O)NC(C)(C)C (stereo partly drawn) | > 2000 | –
57 | – | – | 0.0089 | – | Cc1ccccc1CNC(=O)[C@@H]1CSCN1C(=O)[C@@H](O)[C@H](Cc1ccccc1)NC(=O)C(C)C(C)C(=O)OCC1OC(n2cc(C)c(=O)[nH]c2=O)CC1N=[N+]=[N-] (stereo partly drawn) | – | 1.2
29 | – | – | 0.027 | – | Cc1cn(C2CC(N=[N+]=[N-])C(COC(=O)C(C)C(C)C(=O)N[C@@H](Cc3ccccc3)[C@H](O)C(=O)N3CSC[C@H]3C(=O)NC(C)(C)C)O2)c(=O)[nH]c1=O (stereo partly drawn) | – | 4.7
74 | – | – | – | – | CC(C)(C)NC(=O)[C@@H]1CSCN1C(=O)[C@@H](O)[C@H](Cc1ccccc1)NC(=O)CCC(=O)O | – | –
14 | – | – | 0.042 | – | Cc1cn(C2CC(N=[N+]=[N-])C(COC(=O)CCC(=O)N[C@@H](Cc3ccccc3)[C@H](O)C(=O)N3CSC[C@H]3C(=O)NC(C)(C)C)O2)c(=O)[nH]c1=O (stereo partly drawn) | – | 3
83 | – | – | 0.00024 | – | Cc1ccccc1CNC(=O)[C@H]1N(C(=O)[C@@H](O)[C@H](Cc2ccccc2)NC(=O)CC(C)(C)C(=O)OCC2OC(n3cc(C)c(=O)[nH]c3=O)CC2N=[N+]=[N-])CSC1(C)C (stereo partly drawn) | – | 46
11 | – | – | 0.0038 | – | Cc1ccccc1CNC(=O)[C@@H]1CSCN1C(=O)[C@@H](O)[C@H](Cc1ccccc1)NC(=O)CC(C)(C)C(=O)OCC1OC(n2cc(C)c(=O)[nH]c2=O)CC1N=[N+]=[N-] (stereo partly drawn) | – | 2.9
93 | 20 | – | – | – | CC(C)(C)NC(=O)[C@@H]1CSCN1C(=O)[C@@H](O)[C@H](Cc1ccccc1)NC(=O)CC(C)(C)C(=O)O | > 2000 | –
